Reference: PubChem BioAssay (NCI)
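Where inhibition never reached the appropriate level, the endpoint shown equals the highest concentration tested. Otherwise, values were interpolated linearly from a five-concentration, 48-hour dose response in 96-well plates. TGI marks complete inhibition of growth.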

What was measured:
Assay in all cases: NCI tumour cell line growth inhibition, 48 h
786-0 renal = test system: 786-0 renal
A498 renal = test system: A498 renal
A549 NSCLC = test system: A549 NSCLC
ACHN renal = test system: ACHN renal
CCRF-CEM leukemia = test system: CCRF-CEM leukemia
COLO 205 colon = test system: COLO 205 colon
DLD-1 colon = test system: DLD-1 colon
DMS 114 small cell lung = test system: DMS 114 small cell lung
DMS 273 small cell lung = test system: DMS 273 small cell lung
EKVX NSCLC = test system: EKVX NSCLC
HCT-116 colon = test system: HCT-116 colon
HCT-15 colon = test system: HCT-15 colon
HL-60(TB) leukemia = test system: HL-60(TB) leukemia
HOP-18 NSCLC = test system: HOP-18 NSCLC
HOP-62 NSCLC = test system: HOP-62 NSCLC
HOP-92 NSCLC = test system: HOP-92 NSCLC
HT29 colon = test system: HT29 colon
IGROV1 ovarian = test system: IGROV1 ovarian
K-562 leukemia = test system: K-562 leukemia
KM20L2 colon = test system: KM20L2 colon
LOX IMVI melanoma = test system: LOX IMVI melanoma
LXFL 529 NSCLC = test system: LXFL 529 NSCLC
M14 melanoma = test system: M14 melanoma
M19-MEL melanoma = test system: M19-MEL melanoma
MOLT-4 leukemia = test system: MOLT-4 leukemia
NCI-H23 lung = test system: NCI-H23 lung
NCI-H460 lung = test system: NCI-H460 lung
NCI-H522 lung = test system: NCI-H522 lung
OVCAR-8 ovarian = test system: OVCAR-8 ovarian
RPMI-8226 leukemia = test system: RPMI-8226 leukemia
RXF 393 renal = test system: RXF 393 renal
RXF-631 renal = test system: RXF-631 renal
SF-268 CNS = test system: SF-268 CNS
SF-539 CNS = test system: SF-539 CNS
SK-MEL-28 melanoma = test system: SK-MEL-28 melanoma
SK-MEL-5 melanoma = test system: SK-MEL-5 melanoma
SK-OV-3 ovarian = test system: SK-OV-3 ovarian
SN12C renal = test system: SN12C renal
SW-620 colon = test system: SW-620 colon
TK-10 renal = test system: TK-10 renal
U251 CNS = test system: U251 CNS
UACC-62 melanoma = test system: UACC-62 melanoma
UO-31 renal = test system: UO-31 renal
XF 498 CNS = test system: XF 498 CNS
BT-549 breast = test system: BT-549 breast
CAKI-1 renal = test system: CAKI-1 renal
DU-145 prostate = test system: DU-145 prostate
HCC-2998 colon = test system: HCC-2998 colon
HS 578T breast = test system: HS 578T breast
KM12 colon = test system: KM12 colon
MALME-3M melanoma = test system: MALME-3M melanoma
MCF7 breast = test system: MCF7 breast
MDA-MB-435 = test system: MDA-MB-435
MDA-N = test system: MDA-N
NCI-H226 lung = test system: NCI-H226 lung
NCI/ADR-RES ovarian = test system: NCI/ADR-RES ovarian
OVCAR-3 ovarian = test system: OVCAR-3 ovarian
OVCAR-4 ovarian = test system: OVCAR-4 ovarian
OVCAR-5 ovarian = test system: OVCAR-5 ovarian
PC-3 prostate = test system: PC-3 prostate
SF-295 CNS = test system: SF-295 CNS
SK-MEL-2 melanoma = test system: SK-MEL-2 melanoma
SNB-19 CNS = test system: SNB-19 CNS
SNB-75 CNS = test system: SNB-75 CNS
SNB-78 CNS = test system: SNB-78 CNS
T-47D breast = test system: T-47D breast
UACC-257 melanoma = test system: UACC-257 melanoma
MDA-MB-231 breast = test system: MDA-MB-231 breast
SR leukemia = test system: SR leukemia

Cn1nc(-c2ccccc2)c(C(=O)/C=C/c2ccccc2)c(N2CCCC2)c1=O
TGI (786-0 renal): 33.4 µM | TGI (A498 renal): 26.9 µM | TGI (A549 NSCLC): > 100 µM | TGI (ACHN renal): 41.5 µM | TGI (CCRF-CEM leukemia): 40.6 µM | TGI (COLO 205 colon): 30 µM | TGI (DLD-1 colon): 34.2 µM | TGI (DMS 114 small cell lung): 34.2 µM | TGI (DMS 273 small cell lung): 93.1 µM | TGI (EKVX NSCLC): 53.5 µM | TGI (HCT-116 colon): 19.2 µM | TGI (HCT-15 colon): 72.5 µM | TGI (HL-60(TB) leukemia): 22.7 µM | TGI (HOP-18 NSCLC): 47.1 µM | TGI (HOP-62 NSCLC): 24.2 µM | TGI (HOP-92 NSCLC): 6.23 µM | TGI (HT29 colon): 26.9 µM | TGI (IGROV1 ovarian): 55.7 µM | TGI (K-562 leukemia): 40.9 µM | TGI (KM20L2 colon): 33.4 µM | TGI (LOX IMVI melanoma): 88.2 µM | TGI (LXFL 529 NSCLC): 34.4 µM | TGI (M14 melanoma): 35.3 µM | TGI (M19-MEL melanoma): 37.3 µM | TGI (MOLT-4 leukemia): 22.3 µM | TGI (NCI-H23 lung): 29.9 µM | TGI (NCI-H460 lung): 32.4 µM | TGI (NCI-H522 lung): 23.7 µM | TGI (OVCAR-8 ovarian): 76.5 µM | TGI (RPMI-8226 leukemia): 29.3 µM | TGI (RXF 393 renal): 23.9 µM | TGI (RXF-631 renal): > 100 µM | TGI (SF-268 CNS): 64.2 µM | TGI (SF-539 CNS): 26.3 µM | TGI (SK-MEL-28 melanoma): 32.8 µM | TGI (SK-MEL-5 melanoma): 35.7 µM | TGI (SK-OV-3 ovarian): 85.9 µM | TGI (SN12C renal): 77.6 µM | TGI (SW-620 colon): 53.7 µM | TGI (TK-10 renal): 49.3 µM | TGI (U251 CNS): 26.4 µM | TGI (UACC-62 melanoma): 41 µM | TGI (UO-31 renal): 38.7 µM | TGI (XF 498 CNS): 39.9 µM

COC(=O)c1ccccc1NCc1cc(O)ccc1O
TGI (786-0 renal): 31.7 µM | TGI (A498 renal): > 89.2 µM | TGI (A549 NSCLC): > 83.1 µM | TGI (ACHN renal): 29.8 µM | TGI (BT-549 breast): 15 µM | TGI (CAKI-1 renal): 44.6 µM | TGI (CCRF-CEM leukemia): > 46.3 µM | TGI (COLO 205 colon): 34 µM | TGI (DLD-1 colon): 43 µM | TGI (DMS 273 small cell lung): > 100 µM | TGI (DU-145 prostate): > 100 µM | TGI (EKVX NSCLC): > 68.1 µM | TGI (HCC-2998 colon): > 55.7 µM | TGI (HCT-116 colon): 35.2 µM | TGI (HCT-15 colon): 41.1 µM | TGI (HL-60(TB) leukemia): > 42.8 µM | TGI (HOP-18 NSCLC): 27.6 µM | TGI (HOP-62 NSCLC): > 71.4 µM | TGI (HOP-92 NSCLC): 35.3 µM | TGI (HS 578T breast): 61.5 µM | TGI (HT29 colon): 44.2 µM | TGI (IGROV1 ovarian): > 63.4 µM | TGI (K-562 leukemia): > 59 µM | TGI (KM12 colon): 53.2 µM | TGI (KM20L2 colon): > 100 µM | TGI (LOX IMVI melanoma): 32 µM | TGI (LXFL 529 NSCLC): 32.9 µM | TGI (M14 melanoma): 17.1 µM | TGI (M19-MEL melanoma): 31.7 µM | TGI (MALME-3M melanoma): 36.3 µM | TGI (MCF7 breast): 38 µM | TGI (MDA-MB-435): 34.2 µM | TGI (MDA-N): 31.8 µM | TGI (MOLT-4 leukemia): 76.9 µM | TGI (NCI-H226 lung): 65.3 µM | TGI (NCI-H23 lung): > 68.5 µM | TGI (NCI-H460 lung): > 31.6 µM | TGI (NCI-H522 lung): 6.75 µM | TGI (NCI/ADR-RES ovarian): 62.5 µM | TGI (OVCAR-3 ovarian): 32.5 µM | TGI (OVCAR-4 ovarian): 34.9 µM | TGI (OVCAR-5 ovarian): > 62.1 µM | TGI (OVCAR-8 ovarian): 34.5 µM | TGI (PC-3 prostate): 33.6 µM | TGI (RPMI-8226 leukemia): 96.9 µM | TGI (RXF 393 renal): 30.3 µM | TGI (SF-268 CNS): > 77.4 µM | TGI (SF-295 CNS): 33.3 µM | TGI (SF-539 CNS): 34.9 µM | TGI (SK-MEL-2 melanoma): 58.3 µM | TGI (SK-MEL-28 melanoma): 35.4 µM | TGI (SK-MEL-5 melanoma): 38.9 µM | TGI (SK-OV-3 ovarian): > 100 µM | TGI (SN12C renal): 36.9 µM | TGI (SNB-19 CNS): > 74.1 µM | TGI (SNB-75 CNS): > 75.9 µM | TGI (SNB-78 CNS): 66.6 µM | TGI (SW-620 colon): 52 µM | TGI (T-47D breast): 31.8 µM | TGI (TK-10 renal): > 57.6 µM | TGI (U251 CNS): 40.1 µM | TGI (UACC-257 melanoma): 31.2 µM | TGI (UACC-62 melanoma): 45.5 µM | TGI (UO-31 renal): 31.9 µM | TGI (XF 498 CNS): 33.1 µM

COC(=O)/C(=C/c1ccc(OC)cc1)c1cc(OC)c(OC)c(OC)c1
TGI (786-0 renal): > 86 µM | TGI (A498 renal): > 39 µM | TGI (A549 NSCLC): > 100 µM | TGI (ACHN renal): > 100 µM | TGI (BT-549 breast): > 100 µM | TGI (CAKI-1 renal): > 100 µM | TGI (CCRF-CEM leukemia): > 55.7 µM | TGI (COLO 205 colon): 13.7 µM | TGI (DLD-1 colon): > 100 µM | TGI (DMS 114 small cell lung): > 23.3 µM | TGI (DMS 273 small cell lung): > 100 µM | TGI (DU-145 prostate): 8.56 µM | TGI (EKVX NSCLC): > 100 µM | TGI (HCC-2998 colon): > 59 µM | TGI (HCT-116 colon): 55.3 µM | TGI (HCT-15 colon): > 100 µM | TGI (HL-60(TB) leukemia): 3.06 µM | TGI (HOP-18 NSCLC): > 100 µM | TGI (HOP-62 NSCLC): > 51.2 µM | TGI (HOP-92 NSCLC): > 55.9 µM | TGI (HS 578T breast): 5.69 µM | TGI (HT29 colon): > 74.9 µM | TGI (IGROV1 ovarian): > 100 µM | TGI (K-562 leukemia): > 58.4 µM | TGI (KM12 colon): 71 µM | TGI (LOX IMVI melanoma): > 100 µM | TGI (LXFL 529 NSCLC): > 100 µM | TGI (M14 melanoma): > 96.3 µM | TGI (M19-MEL melanoma): > 100 µM | TGI (MALME-3M melanoma): > 100 µM | TGI (MCF7 breast): > 100 µM | TGI (MDA-MB-231 breast): > 100 µM | TGI (MDA-MB-435): 0.477 µM | TGI (MDA-N): 0.43 µM | TGI (MOLT-4 leukemia): > 97.5 µM | TGI (NCI-H226 lung): 42.3 µM | TGI (NCI-H23 lung): 26.8 µM | TGI (NCI-H460 lung): 45.9 µM | TGI (NCI-H522 lung): 4.58 µM | TGI (NCI/ADR-RES ovarian): > 100 µM | TGI (OVCAR-3 ovarian): 2.63 µM | TGI (OVCAR-4 ovarian): > 100 µM | TGI (OVCAR-5 ovarian): > 100 µM | TGI (OVCAR-8 ovarian): > 100 µM | TGI (PC-3 prostate): > 100 µM | TGI (RPMI-8226 leukemia): 69.5 µM | TGI (RXF 393 renal): 3.38 µM | TGI (SF-268 CNS): > 79.1 µM | TGI (SF-295 CNS): 8.02 µM | TGI (SF-539 CNS): 6.96 µM | TGI (SK-MEL-2 melanoma): > 100 µM | TGI (SK-MEL-28 melanoma): > 100 µM | TGI (SK-MEL-5 melanoma): > 39.3 µM | TGI (SK-OV-3 ovarian): 40.4 µM | TGI (SN12C renal): > 100 µM | TGI (SNB-19 CNS): 98 µM | TGI (SNB-75 CNS): 5.77 µM | TGI (SNB-78 CNS): > 100 µM | TGI (SR leukemia): > 19.6 µM | TGI (SW-620 colon): > 100 µM | TGI (T-47D breast): > 100 µM | TGI (TK-10 renal): > 100 µM | TGI (U251 CNS): 39 µM | TGI (UACC-257 melanoma): > 84.3 µM | TGI (UACC-62 melanoma): 37.4 µM | TGI (UO-31 renal): 74.9 µM | TGI (XF 498 CNS): 83.7 µM
